Data reported in US20260374739A1, “SMALL MOLECULAR WEIGHT CHEMICAL COMPOUND TO ANTAGONIZE EPH-EPHRIN TETRAMERIZATION AND INHIBIT BIDIRECTIONAL SIGNALING” (THE BOARD OF REGENTS OF THE UNIVERSITY OF TEXAS SYSTEM, priority 2022, published 2026).
Where two headings read alike, the source gives them in different places. Marks after values point to notes of the source that are not given here.

Key:
EphrinB2-EphB4 = target: T1, EphrinB2-EphB4 (Homo sapiens, UniProt P54760); assay: Octet 80 sec association/500 sec dissociation, immobilized human EphrinB2-Fc binding to soluble human EphB4-His; settings: for inhibition at 3.2 µM: EphB4, 25 nM EphB4, 3.2 μM compound, A20-I as max control, 0* = less than 0, no inhibition
T1 construct: soluble human EphB1-His, EphB2-His, and EphB4-His ectodomains; commercially available human EphrinB1-Fc (EB1), EphrinB2-Fc (EB2), and EphrinB3-Fc (EB3) ectodomain proteins; purchased
T1 sequence (P54760 16-539 limits assumed): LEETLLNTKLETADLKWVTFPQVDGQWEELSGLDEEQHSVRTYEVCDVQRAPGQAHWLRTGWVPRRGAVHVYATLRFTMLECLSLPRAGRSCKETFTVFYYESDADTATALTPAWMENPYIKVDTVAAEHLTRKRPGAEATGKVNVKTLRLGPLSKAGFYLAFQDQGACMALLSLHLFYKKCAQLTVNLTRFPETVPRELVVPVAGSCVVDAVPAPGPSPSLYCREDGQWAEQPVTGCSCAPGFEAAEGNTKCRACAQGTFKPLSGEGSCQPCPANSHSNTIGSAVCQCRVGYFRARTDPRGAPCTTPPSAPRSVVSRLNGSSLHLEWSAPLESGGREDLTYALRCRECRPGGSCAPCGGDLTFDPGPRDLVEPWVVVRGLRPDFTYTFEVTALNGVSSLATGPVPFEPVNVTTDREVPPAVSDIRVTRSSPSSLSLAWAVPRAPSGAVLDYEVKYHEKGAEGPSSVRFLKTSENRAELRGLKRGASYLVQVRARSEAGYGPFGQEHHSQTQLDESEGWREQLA
Procedure, shortened: (§1)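 EphrinB2-Fc captured on AHC biosensors, then soluble His-tagged EphB ectodomain (25 nM for % inhibition runs) associated 80 s and dissociated 500 s in PBS, 0.05% Tween-20, 1% DMSO ± compound. Compounds tested at 0.1–3.2 μM with a 10 μM max standard; IC50 from AUC of full traces or at 75 s and 135 s.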

EphrinB2-EphB2 = target: T2, EphrinB2-EphB2 (Homo sapiens, UniProt P29323); assay: Octet 80 sec association/500 sec dissociation, immobilized human EphrinB2-Fc binding to soluble human EphB2-His; settings: for inhibition at 3.2 µM: EphB2, 25 nM EphB2, 3.2 μM compound, A20-I as max control, 0* = less than 0, no inhibition; for inhibition of EphrinB2-EphB interactions: 3.2 μM, EphB1, EphB2 and EphB4; for EphB2 Inhibition Percent, Inhibition of Association-Dissociation: at 3.2 μM and 580 seconds
T2 construct: soluble human EphB1-His, EphB2-His, and EphB4-His ectodomains; commercially available human EphrinB1-Fc (EB1), EphrinB2-Fc (EB2), and EphrinB3-Fc (EB3) ectodomain proteins; purchased
T2 sequence (P29323 19-543 limits assumed): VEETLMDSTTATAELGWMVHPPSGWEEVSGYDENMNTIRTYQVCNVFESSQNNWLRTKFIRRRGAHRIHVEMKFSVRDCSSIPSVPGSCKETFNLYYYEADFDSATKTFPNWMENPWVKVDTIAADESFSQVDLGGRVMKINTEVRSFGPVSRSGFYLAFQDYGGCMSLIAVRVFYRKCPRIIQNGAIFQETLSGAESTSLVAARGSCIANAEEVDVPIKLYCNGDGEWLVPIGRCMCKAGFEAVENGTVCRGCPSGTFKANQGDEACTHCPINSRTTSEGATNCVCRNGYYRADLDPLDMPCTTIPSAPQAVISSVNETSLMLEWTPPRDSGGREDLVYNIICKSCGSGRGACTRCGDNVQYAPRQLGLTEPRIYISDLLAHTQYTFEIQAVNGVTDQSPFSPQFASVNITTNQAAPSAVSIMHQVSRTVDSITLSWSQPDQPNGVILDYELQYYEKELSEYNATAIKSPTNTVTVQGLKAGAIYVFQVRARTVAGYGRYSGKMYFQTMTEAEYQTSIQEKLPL
Procedure, shortened: as §1

[1] = read-out: % Inhibition: Association + Dissociation (160 sec)
[2] = read-out: % Inhibition: Association ONLY (80 sec)
[3] = immobilized human EphrinB2, 25 nM soluble human EphB2

Compound | selectivity among EphrinB2-EphB1/B2/B4 (EphrinB2-EphB4; 3.2 μM) | inhibition at 3.2 µM (EphrinB2-EphB4; [1]) [%] | inhibition at 3.2 µM (EphrinB2-EphB4; [2]) [%] | inhibition at 3.2 µM (EphrinB2-EphB2; [1]) [%] | inhibition at 3.2 µM (EphrinB2-EphB2; [2]) [%] | inhibition of EphrinB2-EphB interactions (EphrinB2-EphB2) | EphB4 Inhibition Percent, Inhibition of Association ONLY (EphrinB2-EphB4; at 3.2 μM and 80 seconds, immobilized human EphrinB2, 25 nM soluble human EphB4) [%] | EphB4 Inhibition Percent, Inhibition of Association-Dissociation (EphrinB2-EphB4; at 3.2 μM and 580 seconds, immobilized human EphrinB2, 25 nM soluble human EphB4) [%] | EphB2 Inhibition Percent, Inhibition of Association ONLY (EphrinB2-EphB2; at 3.2 μM and 80 seconds, immobilized human EphrinB2, 25 nM soluble human EphB2) [%] | EphB2 Inhibition Percent, Inhibition of Association-Dissociation (EphrinB2-EphB2; [3])
Oc1ccc(CN2CCN(Cc3ccc(Br)cc3)CC2)c2cccnc12 [Compound 42, 5-((4-(4-bromobenzyl)piperazin-1-yl)methyl)quinolin-8-ol] | ability to selectively inhibit EphrinB2-EphB2 and EphrinB2-EphB1 interactions, while sparing the EphrinB2-EphB4 interaction | 0 | 0 | 56.3 | 37.8 |  |  |  |  | 
COc1ccccc1N1CCN(Cc2cc(I)c(O)c3ncccc23)CC1 [Compound 71, 7-iodo-5-((4-(2-methoxyphenyl)piperazin-1-yl)methyl)quinolin-8-ol] |  | 35.6 | 17.5 | 73.2 | 58.7 | activity similar to A20-I max control |  |  |  | 
Oc1c(Cl)cc(CN2CCOCC2)c2cccnc12 [Compound 4, 4-((7-chloro-8-hydroxyquinolin-1-ium-5-yl)methyl)morpholin-4-ium chloride] |  |  |  |  |  |  | 16.8 | 35.5 | 64.1 | 78.1%
COc1ccc2[nH]cc(C(=O)N3CCOCC3)c2c1 [Compound 63, (5-methoxy-1H-indol-3-yl)(morpholino)methanone] |  | 0 | 0 | 1.3 | 4.3 | showed no activity across the board |  |  |  | 0*%
Oc1c(I)cc(CN2CCOCC2)c2cccnc12 [Compound 8, 4-((8-hydroxy-7-iodoquinolin-1-ium-5-yl)methyl)morpholin-4-ium chloride] |  |  |  |  |  |  |  |  |  | 73.6%
Oc1c(Br)cc(CN2CCN(Cc3ccc(Br)cc3)CC2)c2cccnc12 [Compound 44, 7-bromo-5-((4-(4-bromobenzyl)piperazin-1-yl)methyl)quinolin-8-ol] |  | 28.3 | 4.9 | 77.1 | 62.1 |  |  |  |  | 
Oc1ccc(CN2CCOCC2)c2cccnc12 [Compound 1, 5-(morpholinomethyl)quinolin-8-ol] |  |  |  |  |  | generally less active towards all three interactions |  |  |  | 
